US20150141381A1, “TETRACYCLINE COMPOUNDS HAVING TARGET THERAPEUTIC ACTIVITIES” (Paratek Pharmaceuticals, Inc., priority 2001, published 2015)
Read-outs that look alike come from different tables or passages of the source.

Columns and labels:
[1] = tested on: S. aureus RN450; assay: In Vitro Anti-Bacterial Activity Assay (MIC), gram positive; format: cell-based; details: Staphylococcus aureus, RN450, 18 h
[2] = tested on: E. coli mL308 225; assay: In Vitro Anti-Bacterial Activity Assay (MIC), gram negative; format: cell-based; details: Escherichia coli, ML308225, 18 h
[3] = MIC class, Table 3 (Continued), read-out: Gram+ activity
[4] = MIC class, Table 3 (Continued), read-out: Gram− activity
[5] = gram positive bacteria, read-out: Antibiotic Activity Gram + (MIC)
[6] = gram negative bacteria, read-out: Antibiotic Activity Gram − (MIC)
[7] = MIC class, Table 3, read-out: Antibiotic Activity Gram +
[8] = MIC class, Table 3, read-out: Antibiotic Activity Gram −

SMILES | MIC [1, 5] | MIC [2, 6] | MIC [1, 7] | MIC [2, 8] | further results
COc1ccc(CCc2ccc(O)c3c2C[C@H]2C[C@H]4[C@H](N(C)C)C(O)=C(C(N)=O)C(=O)[C@@]4(O)C(O)=C2C3=O)cc1 | – | – | – | – | MIC [1, 3]: < 4 µg/mL; MIC [2, 4]: < 4 µg/mL
COC(=O)CCc1cccc(-c2ccc(O)c3c2C[C@H]2C[C@H]4[C@H](N(C)C)C(O)=C(C(N)=O)C(=O)[C@@]4(O)C(O)=C2C3=O)c1 | < 4 µg/mL | > 4 µg/mL | – | – | –
CCc1cc(CNC(C)=O)c(O)c2c1C[C@H]1C[C@H]3C(N(C)C)C(O)=C(C(N)=O)C(=O)[C@@]3(O)C(O)=C1C2=O (stereo partly shown) [EM] | – | – | < 4 µg/mL | > 4 µg/mL | –
CN(C)c1cc(CCC2(O)CCCC2)c(O)c2c1C[C@H]1C[C@H]3[C@H](N(C)C)C(O)=C(C(N)=O)C(=O)[C@@]3(O)C(O)=C1C2=O | > 4 µg/mL | > 4 µg/mL | – | – | –
CN(C)c1cc(CNNCC(F)(F)F)c(O)c2c1C[C@H]1C[C@H]3[C@H](N(C)C)C(O)=C(C(N)=O)C(=O)[C@@]3(O)C(O)=C1C2=O | < 4 µg/mL | > 4 µg/mL | – | – | –
C[C@H]1c2ccc(CN3CCC(F)(F)CC3)c(O)c2C(=O)C2=C(O)[C@]3(O)C(=O)C(C(N)=O)=C(O)[C@@H](N(C)C)[C@@H]3[C@@H](O)[C@@H]21 | < 4 µg/mL | < 4 µg/mL | – | – | –
COc1ccc(CNc2cc(N(C)C)c3c(c2O)C(=O)C2=C(O)[C@]4(O)C(=O)C(C(N)=O)=C(O)[C@@H](N(C)C)[C@@H]4C[C@@H]2C3)cc1O | > 4 µg/mL | > 4 µg/mL | – | – | –
CN(C)c1cc(CNCCCC(F)(F)F)c(O)c2c1C[C@H]1C[C@H]3[C@H](N(C)C)C(O)=C(C(N)=O)C(=O)[C@@]3(O)C(O)=C1C2=O | < 4 µg/mL | < 4 µg/mL | – | – | –
CN(C)[C@@H]1C(O)=C(C(N)=O)C(=O)[C@@]2(O)C(O)=C3C(=O)c4c(O)ccc(CNC5CCNCC5)c4C[C@H]3C[C@@H]12 [LD] | – | – | > 4 µg/mL | > 4 µg/mL | –
CN(C)c1cc(CNCc2ccccc2)c(O)c2c1C[C@H]1C[C@H]3[C@H](N(C)C)C(O)=C(C(N)=O)C(=O)[C@@]3(O)C(O)=C1C2=O [MW] | – | – | < 4 µg/mL | < 4 µg/mL | –
CN(C)[C@@H]1C(O)=C(C(N)=O)C(=O)[C@@]2(O)C(O)=C3C(=O)c4c(O)cccc4C[C@H]3C[C@@H]12 [E] | – | – | < 4 µg/mL | < 4 µg/mL | –
CCOC(=O)/C=C/c1cc(N(C)C)c2c(c1O)C(=O)C1=C(O)[C@]3(O)C(=O)C(C(N)=O)=C(O)[C@@H](N(C)C)[C@@H]3C[C@@H]1C2 | < 4 µg/mL | > 4 µg/mL | – | – | –
CN(C)[C@@H]1C(O)=C(C(N)=O)C(=O)[C@@]2(O)C(O)=C3C(=O)c4c(O)c(CNC(=O)c5cccnc5)cc(CCC5CCCCC5)c4C[C@H]3C[C@@H]12 [CV] | – | – | < 4 µg/mL | > 4 µg/mL | –
CCN(CC)Cc1ccc(OC)c(-c2ccc(O)c3c2C[C@H]2C[C@H]4C(N(C)C)C(O)=C(C(N)=O)C(=O)[C@@]4(O)C(O)=C2C3=O)c1 (stereo partly shown) [EC] | – | – | < 4 µg/mL | < 4 µg/mL | –
CN(C)CC#Cc1ccc(O)c2c1C[C@H]1C[C@H]3[C@H](N(C)C)C(O)=C(C(N)=O)C(=O)[C@@]3(O)C(O)=C1C2=O [AL] | – | – | < 4 µg/mL | < 4 µg/mL | –
Cc1ccc(OC(=O)Nc2ccc(O)c3c2C[C@H]2C[C@H]4[C@H](N(C)C)C(O)=C(C(N)=O)C(=O)[C@@]4(O)C(O)=C2C3=O)cc1 [AV] | – | – | – | – | MIC ([1]; read-out: Antibiotic Activity Gram +): < 4 µg/mL; MIC ([2]; read-out: Antibiotic Activity Gram −): < 4 µg/mL
CC(C)CN(Cc1ccc(O)c2c1C[C@H]1C[C@H]3[C@H](N(C)C)C(O)=C(C(N)=O)C(=O)[C@@]3(O)C(O)=C1C2=O)CC(C)C | < 4 µg/mL | < 4 µg/mL | – | – | –
CN(C)c1cc(CNC(CF)CF)c(O)c2c1C[C@H]1C[C@H]3[C@H](N(C)C)C(O)=C(C(N)=O)C(=O)[C@@]3(O)C(O)=C1C2=O | < 4 µg/mL | – | – | – | MIC ([2]; read-out: Antibiotic Activity Gram − (MIC)): > 4 µg/mL

SMILES | MIC [1, 5] | MIC [2, 6] | MIC [1, 7] | MIC [2, 8] | further results
CC(=O)O[C@@H]1[C@H]2[C@H](N(C)C)C(O)=C(C(N)=O)C(=O)[C@@]2(O)C(O)=C2C(=O)c3c(O)cccc3C(C)[C@H]21 (stereo partly shown) | – | – | – | – | MIC [1, 3]: < 4 µg/mL; MIC [2, 4]: < 4 µg/mL
CN(C)[C@@H]1C(O)=C(C(N)=O)C(=O)[C@@]2(O)C(O)=C3C(=O)c4c(O)ccc(-c5ccc(C(C)(C)C)cc5)c4C[C@H]3C[C@@H]12 [drawing 3426] | < 4 µg/mL | < 4 µg/mL | – | – | –
CN(C)c1cc(CNCC2CC2)c(O)c2c1C[C@H]1C[C@H]3[C@H](N(C)C)C(O)=C(C(N)=O)C(=O)[C@@]3(O)C(O)=C1C2=O | < 4 µg/mL | > 4 µg/mL | – | – | –
CC(=O)Nc1ccc(-c2ccc(O)c3c2C[C@H]2C[C@H]4[C@H](N(C)C)C(O)=C(C(N)=O)C(=O)[C@@]4(O)C(O)=C2C3=O)cc1 | < 4 µg/mL | > 4 µg/mL | – | – | –
CN(C)c1cc(NCc2ccc(C#N)cc2)c(O)c2c1C[C@H]1C[C@H]3[C@H](N(C)C)C(O)=C(C(N)=O)C(=O)[C@@]3(O)C(O)=C1C2=O | > 4 µg/mL | > 4 µg/mL | – | – | –
CC#Cc1cc(C#CC)c2c(c1O)C(=O)C1=C(O)[C@]3(O)C(=O)C(C(N)=O)=C(O)[C@@H](N(C)C)[C@@H]3C[C@@H]1C2 | > 4 µg/mL | > 4 µg/mL | – | – | –
CCOC(=O)COC1=C(C(N)=O)C(=O)[C@@]2(O)C(O)=C3C(=O)c4c(O)ccc(I)c4C[C@H]3C[C@H]2[C@@H]1N(C)C [OY] | – | – | < 4 µg/mL | > 4 µg/mL | –
CC(C)S(=O)(=O)NCC#Cc1cc(N(C)C)c2c(c1O)C(=O)C1=C(O)[C@]3(O)C(=O)C(C(N)=O)=C(O)[C@@H](N(C)C)[C@@H]3C[C@@H]1C2 [DI] | – | – | > 4 µg/mL | > 4 µg/mL | –
CN(C)c1cc(CN(Cc2ccccc2)CC(F)(F)F)c(O)c2c1C[C@H]1C[C@H]3[C@H](N(C)C)C(O)=C(C(N)=O)C(=O)[C@@]3(O)C(O)=C1C2=O | < 4 µg/mL | > 4 µg/mL | – | – | –
CN(C)[C@H]1C(O)=C(C(N)=O)C(=O)[C@@]2(O)C(O)=C3C(=O)c4c(O)ccc(-c5cccc(N)c5)c4C[C@H]3C[C@@H]12 [AM] | – | – | < 4 µg/mL | < 4 µg/mL | –
COCC(C)CN(C)Cc1cc(N(C)C)c2c(c1O)C(=O)C1=C(O)[C@]3(O)C(=O)C(C(N)=O)=C(O)[C@@H](N(C)C)[C@@H]3C[C@@H]1C2 (stereo partly shown) | < 4 µg/mL | > 4 µg/mL | – | – | –
CCOC(=O)CNCc1ccc(-c2ccc(O)c3c2C[C@H]2C[C@H]4[C@@H](N(C)C)C(O)=C(C(N)=O)C(=O)[C@@]4(O)C(O)=C2C3=O)cc1 [GK] | – | – | < 4 µg/mL | > 4 µg/mL | –
CCc1ccc(-c2cc(N(C)C)c3c(c2O)C(=O)C2=C(O)[C@]4(O)C(=O)C(C(N)=O)=C(O)[C@@H](N(C)C)[C@@H]4C[C@@H]2C3)cc1 [EJ] | – | – | < 4 µg/mL | > 4 µg/mL | –
CCc1cc(CNC(=O)CN(C)C)c(O)c2c1C[C@H]1C[C@H]3[C@@H](N(C)C)C(O)=C(C(N)=O)C(=O)[C@@]3(O)C(O)=C1C2=O [JL] | – | – | < 4 µg/mL | > 4 µg/mL | –
CN(C)[C@@H]1C(O)=C(C(N)=O)C(=O)[C@@]2(O)C(O)=C3C(=O)c4c(O)ccc(-c5ccncc5Cl)c4C[C@H]3C[C@@H]12 | < 4 µg/mL | < 4 µg/mL | – | – | –
Cc1cc(-c2ccc(O)c3c2C[C@H]2C[C@H]4[C@H](N(C)C)C(O)=C(C(N)=O)C(=O)[C@@]4(O)C(O)=C2C3=O)ccc1F | < 4 µg/mL | < 4 µg/mL | – | – | –
CN(C)c1cc(NC(=O)Nc2ccccc2)c(O)c2c1C[C@H]1C[C@H]3[C@H](N(C)C)C(O)=C(C(N)=O)C(=O)[C@@]3(O)C(O)=C1C2=O [CB] | – | – | < 4 µg/mL | > 4 µg/mL | –
